Assay results from ChEMBL document CHEMBL4706557, “Synthesis and in vitro and in vivo biological evaluation of novel derivatives of flexicaulin A as antiproliferative agents” (Eur J Med Chem, 2020).
Active and inactive are the calls of the source. The calls are words filed in the database; no cut-off is given here.

What was measured:
ECa-109 cell line [1] = assay: Induction of apoptosis in human EC-109 cells assessed as apoptotic rate at 3 uM after 24 hrs by Annexin V-FITC/propidium iodide staining based flow cytometry (reference value: 5.3 %); format: functional
GES1 = assay: Cytotoxicity against human GES1 cells assessed as reduction in survival rate at 0 to 8 uM by SRB assay; format: cell-based; conditions: ges1, 8 µM, TDE = time-dependent effect, dose 0-8 µM
ECa-109 cell line [2] = assay: Induction of mitochondrial depolarization in human EC-109 cells assessed as depolarized cell population at 1.5 uM measured after 24 hrs by JC1 dye based flow cytometry (reference value: 4.2 %); format: functional
ECa-109 cell line [3] = assay: Antiproliferative activity against human EC109 cells assessed as reduction in survival rate at 0 to 8 uM by SRB assay; format: functional, cell-based; conditions: dose 0-8 µM, TDE = time-dependent effect
ECa-109 cell line [4] = assay: Induction of apoptosis in human EC-109 cells xenografted in BALB/c mouse assessed as change in Bax expression in tumor tissue at 40 mg/kg, ip QD for 14 days by Western blotting analysis relative to control; format: functional, organism-based; conditions: time 14.0 day
ECa-109 cell line [5] = assay: Induction of apoptosis in human EC109 cells assessed as increase in phosphorylated ASK1 expression incubated for 24 hrs by Western blot analysis; format: functional, cell-based
[6] = Toxicity in BALB/c mouse assessed as RDW at 40 mg/kg, ip administered once daily for 14 days (reference value: 14.18 +/- 0.26 %); format: organism-based; conditions: in vivo, 336 h, time 14 day
ECa-109 cell line [7] = assay: Induction of apoptosis in human EC109 cells assessed as increase in cleaved caspase 3 expression after 24 hrs by Western blot analysis; format: functional, cell-based
[8] = Toxicity in BALB/c mouse assessed as HCT at 40 mg/kg, ip administered once daily for 14 days (reference value: 49.08 +/- 1.56 %); format: organism-based; conditions: in vivo, 336 h, time 14 day
[9] = Toxicity in BALB/c mouse assessed as HCT at 20 mg/kg, ip administered once daily for 14 days (reference value: 49.08 +/- 1.56 %); format: organism-based; conditions: in vivo, 336 h, time 14 day
ECa-109 cell line [10] = assay: Induction of apoptosis in human EC-109 cells xenografted in BALB/c mouse assessed as increase in phosphorylated ASK1 in tumor tissue at 20 to 40 mg/kg, ip QD for 14 days by Western blotting analysis; format: functional, organism-based; conditions: dose 20-40 mg/kg, time 14.0 day
[11] = Toxicity in BALB/c mouse assessed as RDW at 20 mg/kg, ip administered once daily for 14 days (reference value: 14.18 +/- 0.26 %); format: organism-based; conditions: in vivo, 336 h, time 14 day
[12] = Toxicity in BALB/c mouse assessed as abnormalities in heart at 20 to 40 mg/kg, ip administered once daily for 14 days by HE staining based assay; format: organism-based; conditions: in vivo, 336 h, dose 20-40 mg/kg, time 14 day
ECa-109 cell line [13] = assay: Induction of apoptosis in human EC-109 cells xenografted in BALB/c mouse assessed as decrease in Bcl-2 expression in tumor tissue at 20 to 40 mg/kg, ip QD for 14 days by Western blotting analysis relative to control; format: functional, organism-based; conditions: dose 20-40 mg/kg, time 14.0 day
[14] = Toxicity in BALB/c mouse assessed as PLT at 40 mg/kg, ip administered once daily for 14 days (reference value: 788.60 +/- 71.35 10^9/L); format: organism-based; conditions: in vivo, 336 h, time 14 day
ECa-109 cell line [15] = assay: Induction of apoptosis in human EC109 cells assessed as increase in intracellular ROS level at 3 uM incubated for 24 hrs by DCFH-DA staining based flow cytometry analysis (reference value: 0.6 %); format: functional
[16] = Toxicity in BALB/c mouse assessed as PLT at 20 mg/kg, ip administered once daily for 14 days (reference value: 788.60 +/- 71.35 10^9/L); format: organism-based; conditions: in vivo, 336 h, time 14 day
ECa-109 cell line [17] = assay: Induction of apoptosis in human EC109 cells assessed as change in Bax expression at 0.75 to 3 uM after 24 hrs by Western blot analysis; format: functional, cell-based; conditions: dose 0.75-3 µM
[18] = Toxicity in BALB/c mouse assessed as effect on uric acid content at 20 to 40 mg/kg, ip administered once daily for 14 days; format: organism-based; conditions: in vivo, 336 h, dose 20-40 mg/kg, time 14 day
ECa-109 = assay: Inhibition of clone formation in human EC109 cells at 0.5 uM after 7 days in presence of N-acetylcysteine by crystal violet staining based assay; format: functional, cell-based; conditions: time 7.0 day
ECa-109 cell line [19] = assay: Induction of apoptosis in human EC109 cells assessed as increase in cytochrome C protein expression incubated for 24 hrs by Western blot analysis; format: functional, cell-based
ECa-109 cell line [20] = assay: Induction of apoptosis in human EC109 cells assessed as change in phosphorylated JNK expression at 3 uM incubated for 24 hrs in presence of N-acetylcysteine by Western blot analysis; format: functional, cell-based
ECa-109 cell line [21] = assay: Antiproliferative activity against human EC109 cells assessed as reduction in survival rate after 24 to 72 hrs by SRB assay; format: functional, cell-based; conditions: time 24-72 hrs
ECa-109 cell line [22] = assay: Antitumor activity against human EC109 cells xenografted in BALB/c mouse assessed as reduction in tumor weight at 20 mg/kg, ip administered every day for 14 days; format: functional, organism-based; conditions: time 14.0 day
HUVEC = assay: Cytotoxicity against HUVEC assessed as reduction in survival rate at 0 to 8 uM by SRB assay; format: cell-based; conditions: human, TDE = time-dependent effect, dose 0-8 µM
ECa-109 cell line [23] = assay: Induction of apoptosis in human EC-109 cells xenografted in BALB/c mouse assessed as increase in phosphorylated MKK4 in tumor tissue at 20 to 40 mg/kg, ip QD for 14 days by Western blotting analysis; format: functional, organism-based; conditions: dose 20-40 mg/kg, time 14.0 day
ECa-109 cell line [24] = assay: Induction of morphological changes in human EC109 cells assessed as appearance of contracted and rounded cells; format: functional, cell-based
[25] = Toxicity in nude BALB/c mouse xenografted with human EC109 cells assessed as change in body weight at 20 to 40 mg/kg, ip administered every day for 14 days; format: organism-based; conditions: in vivo, 336 h, dose 20-40 mg/kg, time 14 day
ECa-109 cell line [26] = assay: Induction of apoptosis in human EC109 cells assessed as increase in cleaved caspase 9 expression after 24 hrs by Western blot analysis; format: functional, cell-based
[27] = Toxicity in BALB/c mouse assessed as abnormalities in lungs at 20 to 40 mg/kg, ip administered once daily for 14 days by HE staining based assay; format: organism-based; conditions: in vivo, 336 h, dose 20-40 mg/kg, time 14 day
ECa-109 cell line [28] = assay: Induction of apoptosis in human EC-109 cells xenografted in BALB/c mouse assessed as increase in cleaved caspase 3 in tumor tissue at 40 mg/kg, ip QD for 14 days by Western blotting analysis relative to control; format: functional, organism-based; conditions: time 14.0 day
ECa-109 cell line [29] = assay: Induction of apoptosis in human EC109 cells assessed as reduction in Bcl-2 expression at 3 uM incubated for 24 hrs in presence of N-acetylcysteine by Western blot analysis; format: functional, cell-based
ECa-109 cell line [30] = assay: Induction of apoptosis in human EC109 cells assessed as increase in phosphorylated MKK4 expression incubated for 24 hrs by Western blot analysis; format: functional, cell-based
[31] = Toxicity in BALB/c mouse assessed as effect on WBC level at 20 mg/kg, ip administered once daily for 14 days (reference value: 4.42 +/- 0.79 10^9/L); format: organism-based; conditions: in vivo, 336 h, time 14 day
ECa-109 cell line [32] = assay: Antiproliferative activity against human EC109 cells assessed as inhibition of cell growth at 0.06 to 4 uM preincubated with N-acetylcysteine for 4 hrs followed by compound addition and measured after 24 hrs by SRB assay; format: functional, cell-based; conditions: dose 0.06-4 µM

For `C=C1C(=O)[C@@]23[C@H](O)C[C@@H]4C(C)(C)CCC[C@@]4(COC(C)=O)[C@@H]2[C@@H](O)C[C@H]1[C@H]3OC(=O)c1ccc(CCl)cc1`, the Activity (ECa-109 cell line [1]) was 45.4%, the “inhibition (INH)” value (GES1) was “Tde” and the Activity (ECa-109 cell line [2]) was 47.1%. The inhibition (ECa-109 cell line [3]) was “Tde”, the Activity (ECa-109 cell line [4]) was “Active” and the Activity (ECa-109 cell line [5]) was “Dose-dependent effect”. The Activity [6] was 14.73%, the Activity (ECa-109 cell line [7]) was “Dose-dependent effect” and the Activity [8] was 46.26%. For the same compound, the Activity [9] was 46.67%, the Activity (ECa-109 cell line [10]) was “Active” and the Activity [11] was 14.32%. For the same compound, the Activity [12] was “Non-Toxic”, the Activity (ECa-109 cell line [13]) was “Active” and the Activity [14] was 832.8 10^9/L. The Activity (ECa-109 cell line [15]) was 47%, the Activity [16] was 754.8 10^9/L and the Activity (ECa-109 cell line [17]) was “inactive”. The Activity [18] was “Non-Toxic”, the inhibition (ECa-109) was “inactive” and the Activity (ECa-109 cell line [19]) was “Dose-dependent effect”. The Activity (ECa-109 cell line [20]) was “inactive”, the inhibition (ECa-109 cell line [21]) was “Dose-dependent effect” and the inhibition (ECa-109 cell line [22]) was “Active”. The Activity (HUVEC) was “Tde”, the Activity (ECa-109 cell line [23]) was “Active” and the Activity (ECa-109 cell line [24]) was “Active”. The Activity [25] was “Non-Toxic”, the Activity (ECa-109 cell line [26]) was “Dose-dependent effect” and the Activity [27] was “Non-Toxic”. For the same compound, the Activity (ECa-109 cell line [28]) was “Active”, the Activity (ECa-109 cell line [29]) was “inactive” and the Activity (ECa-109 cell line [30]) was “Dose-dependent effect”. For the same compound, the Activity [31] was 5.02 10^9/L and the inhibition (ECa-109 cell line [32]) was “inactive”.
